Active and inactive are the calls of the source. The calls are words filed in the database; no cut-off is given here.
Assays:
[1] = Stability in mouse plasma assessed as half life at 1.56 mM by RP-HPLC analysis; format: ADME, cell-free
[2] = Stability in mouse plasma assessed as intact peptide level at 1.56 mM incubated for 1 hr by RP-HPLC analysis; format: ADME, cell-free; conditions: read-out: Stabilty
[3] = Stability in human plasma assessed as half life at 1.56 mM by RP-HPLC analysis; format: ADME, cell-free
[4] = Half life in mouse at 3 umol/kg, iv by analytical RP-HPLC analysis; format: ADME, organism-based; conditions: in vivo, dose 3 µmol/kg
[5] = tested on: Mus musculus; experiment: Reno-protective activity in C57BL/6 mouse model of renal I/R injury assessed as improvement in pathologies in injured kidneys dosed intraperitoneally twice per day for 3 days from day of I/R injury to end of experiment by hematoxylin and eosin staining based assay; format: functional, organism-based; conditions: time 3.0 day
[6] = tested on: Mus musculus; experiment: Reno-protective activity in C57BL/6 mouse model of renal I/R injury assessed as reduction neutrophil infiltration dosed intraperitoneally twice per day for 3 days from day of I/R injury to end of experiment; format: functional, organism-based; conditions: time 3.0 day
[7] = tested on: Mus musculus; experiment: Reno-protective activity in C57BL/6 mouse model of renal I/R injury assessed as reduction lymphocyte infiltration dosed intraperitoneally twice per day for 3 days from day of I/R injury to end of experiment; format: functional, organism-based; conditions: time 3.0 day
[8] = tested on: Mus musculus; experiment: Reno-protective activity in C57BL/6 mouse model of renal I/R injury assessed as reduction in fibrosis by measuring collagen deposition dosed intraperitoneally twice per day for 3 days from day of I/R injury to end of experiment by Masson staining based assay; format: functional, organism-based; conditions: time 3.0 day
[9] = tested on: Mus musculus; experiment: Reno-protective activity in C57BL/6 mouse model of renal I/R injury assessed as reduction in apoptosis by measuring increase in number of TUNEL+ cells dosed intraperitoneally twice per day for 3 days from day of I/R injury to end of experiment by TUNEL assay; format: functional, organism-based; conditions: time 3.0 day
[10] = tested on: Mus musculus; experiment: Reno-protective activity in C57BL/6 mouse model of renal I/R injury assessed as reduction in p-MLK levels dosed intraperitoneally twice per day for 3 days from day of I/R injury to end of experiment by Western blot analysis; format: functional, organism-based; conditions: time 3.0 day
[11] = tested on: Mus musculus; experiment: Reno-protective activity in C57BL/6 mouse model of renal I/R injury assessed as reduction in cleaved-caspase-3 levels dosed intraperitoneally twice per day for 3 days from day of I/R injury to end of experiment by Western blot analysis; format: functional, organism-based; conditions: time 3.0 day
[12] = tested on: Mus musculus; experiment: Reno-protective activity in C57BL/6 mouse model of renal I/R injury assessed as suppression of reduction in cleaved-caspase-8 levels dosed intraperitoneally twice per day for 3 days from day of I/R injury to end of experiment by Western blot analysis; format: functional, organism-based; conditions: time 3.0 day
[13] = tested on: NRK-52E; experiment: Cytoprotective activity in rat NRK-52E cells assessed as reduction in H/R-injury induced cell death at 300 pM incubated for 24 hrs; format: functional, cell-based
[14] = tested on: NRK-52E; experiment: Cytoprotective activity in rat NRK-52E cells assessed as reduction in cisplatin-induced cell death at 300 pM incubated for 24 hrs; format: functional, cell-based
[15] = molecular target: T1, Apelin receptor (Rattus norvegicus, UniProt Q9JHG3); experiment: Agonist activity at APJ receptor in rat NRK-52E cells assessed as effect on cAMP accumulation incubated for 1 hr by cAMP-Glo assay; format: functional, cell-based
T1 sequence (Q9JHG3 whole entry): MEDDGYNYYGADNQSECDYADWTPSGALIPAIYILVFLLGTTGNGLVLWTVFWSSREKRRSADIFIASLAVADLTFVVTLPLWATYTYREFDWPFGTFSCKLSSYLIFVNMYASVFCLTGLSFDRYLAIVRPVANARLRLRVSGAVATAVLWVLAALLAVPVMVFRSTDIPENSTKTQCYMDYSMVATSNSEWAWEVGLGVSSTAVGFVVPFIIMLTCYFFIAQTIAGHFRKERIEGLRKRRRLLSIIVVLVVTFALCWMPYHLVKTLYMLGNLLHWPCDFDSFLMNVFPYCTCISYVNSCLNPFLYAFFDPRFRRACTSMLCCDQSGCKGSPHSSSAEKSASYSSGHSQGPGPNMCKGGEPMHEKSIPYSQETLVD

[16] = tested on: Mus musculus; experiment: Reno-protective activity in C57BL/6 mouse model of renal I/R injury assessed as reduction in serum BUN level dosed intraperitoneally twice per day for 3 days from day of I/R injury to end of experiment; format: functional, organism-based; conditions: time 3.0 day
[17] = tested on: Mus musculus; experiment: Reno-protective activity in C57BL/6 mouse model of renal I/R injury assessed as reduction N-gal mRNA levels dosed intraperitoneally twice per day for 3 days from day of I/R injury to end of experiment by qPCR analysis; format: functional, organism-based; conditions: time 3.0 day
[18] = tested on: Mus musculus; experiment: Reno-protective activity in C57BL/6 mouse model of renal I/R injury assessed as reduction in serum creatinine level dosed intraperitoneally twice per day for 3 days from day of I/R injury to end of experiment; format: functional, organism-based; conditions: time 3.0 day
[19] = tested on: Mus musculus; experiment: Reno-protective activity in C57BL/6 mouse model of renal I/R injury assessed as reduction Il6 mRNA levels dosed intraperitoneally twice per day for 3 days from day of I/R injury to end of experiment by qPCR analysis; format: functional, organism-based; conditions: time 3.0 day
[20] = tested on: Mus musculus; experiment: Reno-protective activity in C57BL/6 mouse model of renal I/R injury assessed as reduction TNF-alpha mRNA levels dosed intraperitoneally twice per day for 3 days from day of I/R injury to end of experiment by qPCR analysis; format: functional, organism-based; conditions: time 3.0 day
[21] = tested on: Mus musculus; experiment: Reno-protective activity in C57BL/6 mouse model of renal I/R injury assessed as reduction Kim1 mRNA levels dosed intraperitoneally twice per day for 3 days from day of I/R injury to end of experiment by qPCR analysis; format: functional, organism-based; conditions: time 3.0 day
[22] = tested on: Mus musculus; experiment: Reno-protective activity in C57BL/6 mouse model of renal I/R injury assessed as suppression of renal tubular damage dosed intraperitoneally twice per day for 3 days starting from 6 to 24 hrs post I/R operation by hematoxylin and eosin staining based assay; format: functional, organism-based; conditions: time 3.0 day
[23] = tested on: Mus musculus; experiment: Reno-protective activity in C57BL/6 mouse model of renal I/R injury assessed as suppression of renal dysfunction dosed intraperitoneally twice per day for 3 days starting from 6 hrs post I/R operation by hematoxylin and eosin staining based assay; format: functional, organism-based; conditions: time 3.0 day
[24] = tested on: Mus musculus; experiment: Reno-protective activity in C57BL/6 mouse model of renal I/R injury assessed as reduction lymphocyte infiltration dosed intraperitoneally twice per day for 3 days starting from 6 to 24 hrs post I/R operation; format: functional, organism-based; conditions: time 3.0 day
[25] = tested on: Mus musculus; experiment: Reno-protective activity in C57BL/6 mouse model of renal I/R injury assessed as reduction neutrophil infiltration dosed intraperitoneally twice per day for 3 days starting from 6 to 24 hrs post I/R operation; format: functional, organism-based; conditions: time 3.0 day
[26] = tested on: Mus musculus; experiment: Reno-protective activity in C57BL/6 mouse model of renal I/R injury assessed as reduction Kim1 mRNA expression dosed intraperitoneally twice per day for 3 days starting from 6 to 24 hrs post I/R operation by qPCR analysis; format: functional, organism-based; conditions: time 3.0 day
[27] = tested on: Mus musculus; experiment: Reno-protective activity in C57BL/6 mouse model of renal I/R injury assessed as reduction in fibrosis by measuring collagen deposition dosed intraperitoneally twice per day for 3 days starting from 6 to 24 hrs post I/R operation by Masson staining based assay; format: functional, organism-based; conditions: time 3.0 day
[28] = tested on: Mus musculus; experiment: Reno-protective activity in C57BL/6 mouse model of renal I/R injury assessed as reduction in tubular epithelial cell necroptosis dosed intraperitoneally twice per day for 3 days starting from 6 to 24 hrs post I/R operation by TUNEL assay; format: functional, organism-based; conditions: time 3.0 day
[29] = tested on: Mus musculus; experiment: Reno-protective activity in C57BL/6 mouse model of renal I/R injury assessed as reduction in tubular epithelial cell apoptosis dosed intraperitoneally twice per day for 3 days starting from 6 to 24 hrs post I/R operation by TUNEL assay; format: functional, organism-based; conditions: time 3.0 day

SMILES | half-life at 1560 µM [1] | remaining at 1 h, 1560 µM [2] | half-life at 1560 µM [3] | half-life [4] | Activity [5] | Activity [6] | Activity [7] | Activity [8] | Activity [9] | Activity [10] | Activity [11] | Activity [12] | Activity [13] | Activity [14] | EC50 [15] | Activity [16] | Activity [17] | further results
CSCC[C@H](NC(=O)[C@H](CS)NC(=O)[C@H](CCCNC(=N)N)NC(=O)[C@H](CCCNC(=N)N)NC(=O)[C@@H]1CCC(=O)N1)C(=O)N1CCC[C@H]1C(=O)N[C@@H](CC(C)C)C(=O)N[C@@H](Cc1c[nH]cn1)C(=O)N[C@@H](CO)C(=O)N[C@@H](CCCNC(=N)N)C(=O)N[C@H](C(=O)N1CCC[C@H]1C(=O)N[C@@H](Cc1ccccc1)C(=O)N1CCC[C@H]1C(N)=O)C(C)C | 17.4 min | – | – | – | – | – | – | – | – | – | – | – | – | – | – | – | – | –
CSCC[C@H](NC(=O)[C@@H](N)CS)C(=O)N1CCC[C@H]1C(=O)N[C@@H](CC(C)C)C(=O)N[C@@H](Cc1c[nH]cn1)C(=O)N[C@@H](CO)C(=O)N[C@@H](CCCNC(=N)N)C(=O)N[C@H](C(=O)N1CCC[C@H]1C(=O)N[C@@H](Cc1ccccc1)C(=O)N1CCC[C@H]1C(N)=O)C(C)C | 22.8 min | 19% | 23.4 min | 21 min | Active | Active | Active | Active | Active | Active | Active | Active | Active | Active | – | – | – | –
CSCC[C@H](NC(=O)[C@H](CS)NC(=O)CC[C@H](NC(=O)CCOCCOCCOCCOCCOCCOCCN)C(=O)O)C(=O)N1CCC[C@H]1C(=O)N[C@@H](CC(C)C)C(=O)N[C@@H](Cc1c[nH]cn1)C(=O)N[C@@H](CO)C(=O)N[C@@H](CCCNC(=N)N)C(=O)N[C@H](C(=O)N1CCC[C@H]1C(=O)N[C@@H](Cc1ccccc1)C(=O)N1CCC[C@H]1C(N)=O)C(C)C | 47.4 min | 38.7% | 106 min | – | Active | Active | Active | Active | Active | Active | Active | Active | Active | Active | 7.84 nM | Active | Active | –
CCCCCCCCCCCCCCCC(=O)N[C@@H](CCC(=O)NCCCC[C@H](N)C(=O)N[C@@H](CS)C(=O)N[C@@H](CCSC)C(=O)N1CCC[C@H]1C(=O)N[C@@H](CC(C)C)C(=O)N[C@@H](Cc1c[nH]cn1)C(=O)N[C@@H](CO)C(=O)N[C@@H](CCCNC(=N)N)C(=O)N[C@H](C(=O)N1CCC[C@H]1C(=O)N[C@@H](Cc1ccccc1)C(=O)N1CCC[C@H]1C(N)=O)C(C)C)C(=O)O | 30 min | 25.8% | 37.8 min | – | Active | Active | Active | Active | Active | Active | Active | Active | – | – | 7.98 nM | – | – | –
CCCCCCCCCCCCCCCC(=O)N[C@@H](CCC(=O)NCCCC[C@H](NC(=O)CCC(=O)N[C@@H](CS)C(=O)N[C@@H](CCSC)C(=O)N1CCC[C@H]1C(=O)N[C@@H](CC(C)C)C(=O)N[C@@H](Cc1c[nH]cn1)C(=O)N[C@@H](CO)C(=O)N[C@@H](CCCNC(=N)N)C(=O)N[C@H](C(=O)N1CCC[C@H]1C(=O)N[C@@H](Cc1ccccc1)C(=O)N1CCC[C@H]1C(N)=O)C(C)C)C(=O)N[C@@H](CS)C(=O)N[C@@H](CCSC)C(=O)N1CCC[C@H]1C(=O)N[C@@H](CC(C)C)C(=O)N[C@@H](Cc1c[nH]cn1)C(=O)N[C@@H](CO)C(=O)N[C@@H](CCCNC(=N)N)C(=O)N[C@H](C(=O)N1CCC[C@H]1C(=O)N[C@@H](Cc1ccccc1)C(=O)N1CCC[C@H]1C(N)=O)C(C)C)C(=O)O | 305 min | 75.9% | > 1440 min | – | inactive | inactive | inactive | inactive | – | – | – | – | – | – | 9.48 nM | – | – | –
CCCCCCCCCCCCCCCC(=O)N[C@@H](CCC(=O)N[C@@H](CS)C(=O)N[C@@H](CCSC)C(=O)N1CCC[C@H]1C(=O)N[C@@H](CC(C)C)C(=O)N[C@@H](Cc1c[nH]cn1)C(=O)N[C@@H](CO)C(=O)N[C@@H](CCCNC(=N)N)C(=O)N[C@H](C(=O)N1CCC[C@H]1C(=O)N[C@@H](Cc1ccccc1)C(=O)N1CCC[C@H]1C(N)=O)C(C)C)C(=O)O | 87 min | 63.6% | 118 min | 1350 min | Active | Active | Active | Active | Active | Active | Active | Active | Active | Active | – | Active | Active | Activity [18]: Active; Activity [19]: Active; Activity [20]: Active; Activity [21]: Active; Activity [22]: Active; Activity [23]: Active; Activity [24]: Active; Activity [25]: Active; Activity [26]: Active; Activity [27]: Active; Activity [28]: Active; Activity [29]: Active

— ChEMBL document CHEMBL4706634, “PEGylated and Acylated Elabela Analogues Show Enhanced Receptor Binding, Prolonged Stability, and Remedy of Acute Kidney Injury” (J Med Chem, 2020)
